# Source: patent US8802663B2, “Pyrazole oxadiazole derivatives as S1P1 agonists” (Merck Serono SA, priority 2009, dated 2014)
# Molecular target: S1P1 (Homo sapiens (Human), UniProt P21453)
# Experiment: 35S-GTPγS binding, membranes from CHO cells expressing S1P1
# Assay type: biochemical
# Conditions: CHO cell membranes
# Experimental: Cells were suspended in 50 mM TRIS, pH 7.4, 2 mM EDTA, 250 mM Sucrose (buffer A) and 1× Complete protease inhibitor cocktail (Roche), and disrupted at 4° C. by N2 decompression using a cell disruption bomb (Parr Instrument). Following centrifugation at 1000 RPM for 10 min at 4° C., the supernatant was suspended in buffer A and centrifuged again at 19000 RPM for 60 min at 4° C. The pellet was then suspended in 10 mM HEPES, pH 7.4, 1 mM EDTA, 250 mM Sucrose (Buffer B), and 1× Complete EDTA-free protease inhibitor cocktail and homogenized using a potter. Membranes were flash frozen in liquid N2 and stored at −80° C. [33P]sphingosine 1-phosphate (3000 Ci/mmol; American Radiolabeled Chemicals, Inc.) was added to test compounds in DMSO. […] Specific binding was calculated by subtracting remaining radioactivity in the presence of 1000-fold excess of unlabeled SIP. Binding data were analyzed using the GraphPad Prism program.
# After 60 min incubation at 30° C. on a shaker, plates were centrifuged for 10 min at 2000 RPM. […] Triplicate samples were averaged and expressed as % response relative to S1P activation in absence of compound (n=2).
# Chain of S1P1 (P21453 whole entry, species assumed): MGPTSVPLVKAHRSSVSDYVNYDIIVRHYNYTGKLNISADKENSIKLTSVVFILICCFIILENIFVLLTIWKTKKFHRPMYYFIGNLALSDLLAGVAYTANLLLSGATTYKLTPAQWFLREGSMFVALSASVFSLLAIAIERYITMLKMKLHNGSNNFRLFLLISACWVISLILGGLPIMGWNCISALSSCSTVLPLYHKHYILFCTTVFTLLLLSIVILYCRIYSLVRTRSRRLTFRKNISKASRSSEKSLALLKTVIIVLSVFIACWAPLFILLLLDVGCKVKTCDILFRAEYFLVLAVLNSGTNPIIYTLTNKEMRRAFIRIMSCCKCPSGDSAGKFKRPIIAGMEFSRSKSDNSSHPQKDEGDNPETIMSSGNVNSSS
row,Structure (SMILES),EC50
1,"c1cc(-c2c(-c3nc(-c4ccc5nccn5c4)no3)cnn2C2CCCCC2)ccn1 [Example 95, 5-(1-cyclohexyl-5-(pyridin-4-yl)-1H-pyrazol-4-yl)-3-(imidazo[1,2-a]pyridin-6-yl)-1,2,4-oxadiazole]",0.096 µM
2,"COCc1c(-c2nc(-c3ccc(CO)cc3)no2)cnn1C1CCCCC1 [Example 49, (4-{5-[1-cyclohexyl-5-(methoxymethyl)-1H-pyrazol-4-yl]-1,2,4-oxadiazol-3-yl}phenyl)methanol]",0.229 µM
3,"CNCc1ccc(-c2noc(-c3cnn(C4CCCCC4)c3-c3ccncc3)n2)cc1 [Example 55, 1-{4-[5-(1-cyclohexyl-5-pyridin-4-yl-1H-pyrazol-4-yl)-1,2,4-oxadiazol-3-yl]phenyl}-N-methylmethanamine]",0.024 µM
4,"Fc1ccc(F)c(-c2noc(-c3cnn(CCNC4CC4)c3-c3ccccc3)n2)c1 [Example 35, N-(2-{4-[3-(2,5-difluorophenyl)-1,2,4-oxadiazol-5-yl]-5-phenyl-1H-pyrazol-1-yl}ethyl)cyclopropanamine]",0.931 µM
5,"CC(C)Cn1ncc(-c2nc(-c3ccc(CN(C)CC(=O)O)cc3)no2)c1-c1ccncc1 [Example 77, N-{4-[5-(1-isobutyl-5-pyridin-4-yl-1H-pyrazol-4-yl)-1,2,4-oxadiazol-3-yl]benzyl}-N-methylglycine]",0.837 µM
6,"COCc1c(-c2nc(-c3ccc(CNCC(O)CO)cc3)no2)cnn1C1CCCCC1 (stereo not drawn) [Example 122, 3-(4-(5-(1-cyclohexyl-5-(methoxymethyl)-1H-pyrazol-4-yl)-1,2,4-oxadiazol-3-yl)benzylamino)propane-1,2-diol]",0.157 µM
7,"COCc1c(-c2nc(-c3ccc(O)cc3)no2)cnn1C1CCCCC1 [Example 123, 4-(5-(1-cyclohexyl-5-(methoxymethyl)-1H-pyrazol-4-yl)-1,2,4-oxadiazol-3-yl)phenol]",0.082 µM
8,"Cc1c(-c2nc(-c3cc(F)ccc3F)no2)cnn1C1CCCCC1 [Example 86, 5-(1-cyclohexyl-5-methyl-1H-pyrazol-4-yl)-3-(2,5-difluorophenyl)-1,2,4-oxadiazole]",0.306 µM
9,"Cc1nn(C2CCCCC2)cc1-c1nc(-c2cc(F)ccc2F)no1 [Example 83, 5-(1-cyclohexyl-3-methyl-1H-pyrazol-4-yl)-3-(2,5-difluorophenyl)-1,2,4-oxadiazole]",0.313 µM
10,"COCc1c(-c2nc(-c3ccc(N)nc3)no2)cnn1C1CCCCC1 [Example 124, 5-(5-(1-cyclohexyl-5-(methoxymethyl)-1H-pyrazol-4-yl)-1,2,4-oxadiazol-3-yl)pyridin-2-amine]",0.382 µM
11,"OC1CCN(Cc2ccc(-c3noc(-c4cnn(C5CCCCC5)c4-c4ccncc4)n3)cc2)C1 (stereo not drawn) [Example 45, 1-{4-[5-(1-cyclohexyl-5-pyridin-4-yl-1H-pyrazol-4-yl)-1,2,4-oxadiazol-3-yl]benzyl}pyrrolidin-3-ol]",0.01 µM
12,"CC(C)(C)Cn1ncc(-c2nc(-c3ccc(CO)cc3)no2)c1-c1ccncc1 [Example 100, (4-(5-(1-neopentyl-5-(pyridin-4-yl)-1H-pyrazol-4-yl)-1,2,4-oxadiazol-3-yl)phenyl)methanol]",0.377 µM
13,"CC(C)Cn1ncc(-c2nc(-c3ccc(CO)cc3)no2)c1-c1ccncc1 [Example 54, {4-[5-(1-isobutyl-5-pyridin-4-yl-1H-pyrazol-4-yl)-1,2,4-oxadiazol-3-yl]phenyl}methanol]",0.189 µM
14,"COCCc1c(-c2nc(-c3ccc(Cn4cncn4)cc3)no2)cnn1C1CCCCC1 [Example 111, 3-(4-((1H-1,2,4-triazol-1-yl)methyl)phenyl)-5-(1-cyclohexyl-5-(2-methoxyethyl)-1H-pyrazol-4-yl)-1,2,4-oxadiazole]",0.029 µM
15,"Fc1ccc(F)c(-c2noc(-c3cnn(Cc4ccccc4)c3-c3ccncc3)n2)c1 [Example 25, 4-{1-benzyl-4-[3-(2,5-difluorophenyl)-1,2,4-oxadiazol-5-yl]-1H-pyrazol-5-yl}pyridine]",0.148 µM
16,"COCCc1c(-c2nc(-c3cccc(C(F)(F)F)c3)no2)cnn1C1CCCCC1 [Example 108, 5-(1-cyclohexyl-5-(2-methoxyethyl)-1H-pyrazol-4-yl)-3-(3-(trifluoromethyl)phenyl)-1,2,4-oxadiazole]",0.102 µM
17,"COCc1c(-c2nc(-c3ccc(CCN4CCC(C(=O)O)CC4)cc3)no2)cnn1C1CCCCC1 [Example 130, 1-(4-(5-(1-cyclohexyl-5-(methoxymethyl)-1H-pyrazol-4-yl)-1,2,4-oxadiazol-3-yl)phenethyl)piperidine-4-carboxylic acid]",0.036 µM
18,"FC(F)(F)c1cccc(-c2noc(-c3cnn(CC4CC4)c3-c3ccncc3)n2)c1 [Example 113, 5-(1-(cyclopropylmethyl)-5-(pyridin-4-yl)-1H-pyrazol-4-yl)-3-(3-(trifluoromethyl)phenyl)-1,2,4-oxadiazole]",0.024 µM
19,"COCc1c(-c2nc(-c3ccc(CN4CCC(O)C4)cc3)no2)cnn1C1CCCCC1 (stereo not drawn) [Example 74, 1-(4-{5-[1-cyclohexyl-5-(methoxymethyl)-1H-pyrazol-4-yl]-1,2,4-oxadiazol-3-yl}benzyl)pyrrolidin-3-ol]",0.086 µM
20,"CN(CC(=O)O)Cc1ccc(-c2noc(-c3cnn(C4CCCCC4)c3-c3ccncc3)n2)cc1 [Example 61, N-{4-[5-(1-cyclohexyl-5-pyridin-4-yl-1H-pyrazol-4-yl)-1,2,4-oxadiazol-3-yl]benzyl}-N-methylglycine]",0.022 µM
21,"COc1ccccc1-n1ncc(-c2nc(-c3cc(F)ccc3F)no2)c1-c1ccccc1 [Example 4, 3-(2,5-difluorophenyl)-5-[1-(2-methoxyphenyl)-5-phenyl-1H-pyrazol-4-yl]-1,2,4-oxadiazole]",0.284 µM
22,"COCc1c(-c2nc(-c3cc(F)ccc3F)no2)cnn1C1CCCCC1 [Example 27, 5-[1-cyclohexyl-5-(methoxymethyl)-1H-pyrazol-4-yl]-3-(2,5-difluorophenyl)-1,2,4-oxadiazole]",0.027 µM
23,"Cn1cc(-c2nc(-c3cc(F)ccc3F)no2)c(C(C)(C)C)n1 [Example 16, 5-(3-tert-butyl-1-methyl-1H-pyrazol-4-yl)-3-(2,5-difluorophenyl)-1,2,4-oxadiazole]",0.901 µM
24,"O=C(O)C1CCN(Cc2ccc(-c3noc(-c4cnn(C5CCCCC5)c4C4CCOCC4)n3)cc2)CC1 [Example 132, 1-(4-(5-(1-cyclohexyl-5-(tetrahydro-2H-pyran-4-yl)-1H-pyrazol-4-yl)-1,2,4-oxadiazol-3-yl)benzyl)piperidine-4-carboxylic acid]",0.018 µM
25,"CC(C)Cn1ncc(-c2nc(-c3cc(F)ccc3F)no2)c1C1CCOCC1 [Example 32, 3-(2,5-difluorophenyl)-5-[1-isobutyl-5-(tetrahydro-2H-pyran-4-yl)-1H-pyrazol-4-yl]-1,2,4-oxadiazole]",0.18 µM
26,"c1cc(-c2c(-c3nc(-c4ccc5c(c4)CNCC5)no3)cnn2C2CCCCC2)ccn1 [Example 39, 7-[5-(1-cyclohexyl-5-pyridin-4-yl-1H-pyrazol-4-yl)-1,2,4-oxadiazol-3-yl]-1,2,3,4-tetrahydroisoquinoline]",0.016 µM
27,"Fc1ccc(F)c(-c2noc(-c3cnn(CCc4ccccc4)c3-c3ccncc3)n2)c1 [Example 99, 3-(2,5-difluorophenyl)-5-(1-phenethyl-5-(pyridin-4-yl)-1H-pyrazol-4-yl)-1,2,4-oxadiazole]",0.496 µM
